Experimental data from patent US20230365514A1, “MACROCYCLIC COMPOUNDS” (NOVO NORDISK RESEARCH CENTRE OXFORD LIMITED, priority 2017, published 2023).

How the values were obtained:
Type in all cases: binding
[1] = 1H NMR titration with 2-deoxy-D-glucose; details: D2O, 10 mM phosphate buffer pH 7.4, 298 K
Method: (§1) ^1H-NMR titrations were performed on a Varian VNMR cryogenically cooled S600 spectrometer. Solutions of saccharides in D2O (99.9%), containing receptor at a known concentration to be used in the experiment, were prepared and allowed to equilibrate overnight before use if necessary. Aliquots were then added to an NMR tube containing a known concentration of receptor solution (typically 100 µM - 400 µM). The receptor concentration was therefore held constant while the carbohydrate concentration was increased. The sample tube was shaken after each addition and ^1H-NMR spectra were acquired at 298 K.
(§2) ^1H-NMR titrations were performed on a Varian VNMR cryogenically cooled S600 spectrometer. Solutions of saccharides in D2O (99.9%), containing receptor at a known concentration to be used in the experiment, were prepared and allowed to equilibrate overnight before use if necessary. Aliquots were then added to an NMR tube containing a known concentration of receptor solution (typically 50 µM - 250 µM). The receptor concentration was therefore held constant while the carbohydrate concentration was increased. […]
(§3) If the receptor bound saccharide slower than the NMR sample rate (“slow exchange”), the Ka was determined by analysing the NMR integral of a peak assigned to the Host-Guest complex. […] An estimated error for Ka was obtained from individual data points by assuming the determined Ka and Xlim.

[2] = ITC titration with N-acetyl-D-glucosamine; details: 10 mM phosphate buffer pH 7.4, 298 K
Method: (§4) ITC experiments were carried out at 298 K. Saccharide solutions were prepared in HPLC-grade water with 10 mM phosphate buffer solution (pH 7.4) and allowed to equilibrate overnight if necessary. The sample cell was charged with a known concentration of receptor solution in HPLC-grade water with 10 mM phosphate buffer solution at pH 7.4 (typically 50 µM - 200 µM). Then, aliquots (typically 1.0 µL) of carbohydrate solution were added and the evolution of heat was followed as a function of time. Heats of dilution were measured by injecting the same carbohydrate solution into HPLC-grade water with 10 mM phosphate buffer solution at pH 7.4, using identical conditions. For every addition, the heat of dilution was subtracted from the heat of binding using a MicroCal software programme implemented in ORIGIN 7.0. This gave an XY matrix of heat vs. total guest concentration. This matrix was then imported into a specially written Excel programme to fit the data to a 1:1 binding model to give a Ka. ΔG can be derived from Ka and thus ΔS can be derived from ΔH and ΔG using common thermodynamic equations.

[3] = 1H NMR titration with myo-inositol; details: D2O, 10 mM phosphate buffer pH 7.4, 298 K
Method: as §1, §2, §3

[4] = ITC titration with D-fructose; details: 10 mM phosphate buffer pH 7.4, 298 K
Method: (§5) ITC experiments were carried out at 298 K. Saccharide solutions were prepared in HPLC-grade water with 10 mM phosphate buffer solution (pH 7.4) and allowed to equilibrate overnight if necessary. The sample cell was charged with a known concentration of receptor solution in HPLC-grade water with 10 mM phosphate buffer solution at pH 7.4 (typically 50 µM - 200 µM). Then, aliquots (typically 1.0 µL) of carbohydrate solution were added and the evolution of heat was followed as a function of time. Heats of dilution were measured by injecting the same carbohydrate solution into HPLC-grade water with 10 mM phosphate buffer solution at pH 7.4, using identical conditions. For every addition, the heat of dilution was subtracted from the heat of binding using a MicroCal software programme implemented in ORIGIN 7.0. This gave an XY matrix of heat vs. total guest concentration. This matrix was then imported into a specially written Excel programme to fit the data to a 1:1 binding model to give a Ka. ΔG can be derived from Ka and thus ΔS can be derived from ΔH and ΔG using common thermodynamic equations. […] This method consistently produced more accurate fits than fitting the data to an S-curve, as in the MicroCal software (S-curves are typically not observed for binding constants below ~104 - 105 M^-1).

[5] = 1H NMR ROESY of receptor with D-glucose; details: receptor 2 mM with D-glucose 5 mM (2.5 equivalents) in D2O
Excerpt: Chemical exchange peaks (black, annotated) link CH protons on β-D-glucose in free and bound states. Signals for bound α-D-glucose were not observed under these conditions.

[6] = ITC titration with cytosine; details: 10 mM phosphate buffer pH 7.4, 298 K
Method: (§6) Isothermal Titration (Micro)Calorimetry (ITC) experiments were performed on a MicroCal iTC200 microcalorimeter and/or a MicroCali VP-ITC. ITC experiments were carried out at 298 K. Saccharide solutions were prepared in HPLC-grade water and allowed to equilibrate overnight if necessary. The sample cell was charged with a known concentration of receptor solution in HPLC-grade water (typically 50 µM - 200 µM). Then, aliquots (typically 1.0 µL) of carbohydrate solution were added and the evolution of heat was followed as a function of time. Heats of dilution were measured by injecting the same carbohydrate solution into HPLC-grade water, using identical conditions. For every addition, the heat of dilution was subtracted from the heat of binding using a MicroCal software programme implemented in ORIGIN 7.0. This gave an XY matrix of heat vs. total guest concentration. […] This method of analysis was used in conjunction with fits for Ka calculated using the MicroCal software to corroborate the results obtained.
(§7) Isothermal Titration MicroCalorimetry (ITC) experiments were performed on a MicroCal iTC200 microcalorimeter and/or a MicroCali VP-ITC. […] Heats of dilution were measured by injecting the same carbohydrate solution into HPLC-grade water with 10 mM phosphate buffer solution at pH 7.4, using identical conditions. […]

[7] = ITC titration with D-mannose; details: 10 mM phosphate buffer pH 7.4, 298 K
Method: (§8) Isothermal Titration (Micro)Calorimetry (ITC) experiments were performed on a MicroCal iTC200 microcalorimeter and/or a MicroCali VP-ITC. ITC experiments were carried out at 298 K. Saccharide solutions were prepared in HPLC-grade water and allowed to equilibrate overnight if necessary. The sample cell was charged with a known concentration of receptor solution in HPLC-grade water (typically 50 µM - 200 µM). Then, aliquots (typically 1.0 µL) of carbohydrate solution were added and the evolution of heat was followed as a function of time. Heats of dilution were measured by injecting the same carbohydrate solution into HPLC-grade water, using identical conditions. For every addition, the heat of dilution was subtracted from the heat of binding using a MicroCal software programme implemented in ORIGIN 7.0. This gave an XY matrix of heat vs. total guest concentration. This matrix was then imported into a specially written Excel programme to fit the data to a 1:1 binding model to give a Ka. ΔG can be derived from Ka, and ΔS can be derived from ΔH and ΔG using common thermodynamic equations. This method of analysis was used in conjunction with fits for Ka calculated using the MicroCal software to corroborate the results obtained.
(§9) Isothermal Titration MicroCalorimetry (ITC) experiments were performed on a MicroCal iTC200 microcalorimeter and/or a MicroCali VP-ITC. ITC experiments were carried out at 298 K. Saccharide solutions were prepared in HPLC-grade water with 10 mM phosphate buffer solution (pH 7.4) and allowed to equilibrate overnight if necessary. The sample cell was charged with a known concentration of receptor solution in HPLC-grade water with 10 mM phosphate buffer solution at pH 7.4 (typically 50 µM - 200 µM). Then, aliquots (typically 1.0 µL) of carbohydrate solution were added and the evolution of heat was followed as a function of time. Heats of dilution were measured by injecting the same carbohydrate solution into HPLC-grade water with 10 mM phosphate buffer solution at pH 7.4, using identical conditions. […]

[8] = ITC titration with D-cellobiose
Method: as §5

[9] = ITC titration with D-xylose; details: 10 mM phosphate buffer pH 7.4, 298 K
Method: as §8, §9

[10] = ITC titration with L-fucose; details: 10 mM phosphate buffer pH 7.4, 298 K
Method: as §6, §7

[11] = ITC titration with L-phenylalanine; details: 10 mM phosphate buffer pH 7.4, 298 K
Method: as §6, §7

[12] = ITC titration with L-tryptophan; details: 10 mM phosphate buffer pH 7.4, 298 K
Method: as §6, §7

[13] = ITC titration with myo-inositol; details: 10 mM phosphate buffer pH 7.4, 298 K
Method: as §4

[14] = ITC titration with uracil; details: Uracil (PBS) pH 7.4, 298 K
Method: as §6, §7

[15] = 1H NMR titration with D-glucose
Method: as §1
^1H-NMR titrations were performed on a Varian VNMR cryogenically cooled S600 spectrometer. Solutions of saccharides in D2O (99.9%), containing receptor at a known concentration to be used in the experiment, were prepared and allowed to equilibrate overnight before use if necessary. Aliquots were then added to an NMR tube containing a known concentration of receptor solution (typically 50 µM - 250 µM). The receptor concentration was therefore held constant while the carbohydrate concentration was increased. The sample tube was shaken after each addition, centrifuged and ^1H-NMR spectra were acquired at 298 K.
If the receptor bound saccharide slower than the NMR sample rate (“slow exchange”), the Ka was determined by analysing the NMR integral of a peak assigned to the Host-Guest complex. The variable X was defined as the integral of an isolated resonance of the complex (typically in the aromatic region) divided by the integral of all the related resonances (typically the whole aromatic region). As X is proportional to fraction of host in the bound state, the change in X could be plotted as a function of the guest concentration to give a curve which could be fitted to a 1:1 binding model to yield the association constant Ka. Mathematically, the fitting process is essentially identical to that employed for binding with fast exchange, except that the integral of a peak due to the complex replaces the chemical shift of a peak due to bound + unbound receptor. The calculation was performed using a non-linear least squares curve-fitting programme implemented within Excel. The programme yields binding constants Ka and limiting X (Xlim) as output. An estimated error for Ka was obtained from individual data points by assuming the determined Ka and Xlim.

[16] = ITC titration with D-glucose
Method: as §5

[17] = ITC titration with adenosine; details: 10 mM phosphate buffer pH 7.4, 298 K
Method: as §6, §7

[18] = ITC titration with paracetamol; details: 10 mM phosphate buffer pH 7.4, 298 K
Method: as §6, §7

[19] = ITC titration with D-mannitol; details: 10 mM phosphate buffer pH 7.4, 298 K
Method: as §4

[20] = ITC titration with methyl α-D-glucoside; details: 10 mM phosphate buffer pH 7.4, 298 K
Method: as §4

[21] = ITC titration with ascorbic acid; details: 10 mM phosphate buffer pH 7.4, 298 K
Method: as §6, §7

[22] = ITC titration with D-glucuronic acid; details: 10 mM phosphate buffer pH 7.4, 298 K
Method: as §8, §9

[23] = ITC titration with methyl β-D-glucoside
Method: as §5

[24] = ITC titration with D-ribose; details: 10 mM phosphate buffer pH 7.4, 298 K
Method: as §8, §9

[25] = ITC titration with uric acid; details: Uric Acid (PBS) pH 7.4, 298 K
Method: as §6, §7

[26] = 1H NMR titration with D-cellobiose; details: [Host]total 110 µM
Excerpt: The integrals of the peak at 8.02 ppm (denoted with •, see FIG. 31) were made relative to integral of the same peak (8.02 ppm) when all receptor is assumed to be saturated with guest (i.e. the final addition in the titration, row denoted with yellow). These relative integrals are then used to determine the amount of Host-Guest [HG]. This value for [HG] along with calculated values for free host [H]free and free guest [G]free can be used to calculate the Ka at each point in the titration. […] Not all Ka values calculated were included in the averaged Ka value. The earlier integrations are unreliable due to the very small intensity of the peak at 8.02 ppm. The later integrations were also deemed unreliable due to large deviations in baseline of the spectra due to the large excess of guest present. The selected values for Ka used for the average calculation and the averaged Ka itself corroborate with the results obtained from ITC.

[27] = ITC titration with D-maltose; details: 10 mM phosphate buffer pH 7.4, 298 K
Method: as §6, §7

[28] = ITC titration with D-galactose; details: 10 mM phosphate buffer pH 7.4, 298 K
Method: as §8, §9

[29] = ITC titration with 2-deoxy-D-glucose
Method: as §5

[30] = ITC titration with gluconate; details: Gluconate (from D-glucono-δ-lactone); 10 mM phosphate buffer pH 7.4, 298 K
Method: as §4

[31] = D-Cellobiose, 10 mM phosphate buffer pH 7.4, 298 K
[32] = D-Glucose (DMEM cell culture), 10k MWCO, 10 mM phosphate buffer pH 7.4
[33] = D-Glucose (DMEM salt control), 10 mM phosphate buffer pH 7.4 with added salts
[34] = D-Glucose (Leibovitz’s L-15 cell culture), 10k MWCO, 10 mM phosphate buffer pH 7.4
[35] = D-Glucose (human serum), 10k MWCO, 10 mM phosphate buffer
[36] = D-Glucose, 10 mM phosphate buffer pH 7.4, 298 K
[37] = Methyl β-D-Glucoside, 10 mM phosphate buffer pH 7.4, 298 K
[38] = 2-Deoxy-D-Glucose, 10 mM phosphate buffer pH 7.4, 298 K

What does the source list for CCc1c2c(CC)c3c(CC)c1CNC(=O)Nc1ccc(C(=O)NC(CCC(=O)NC(CCC(=O)[O-])(CCC(=O)[O-])CCC(=O)[O-])(CCC(=O)NC(CCC(=O)[O-])(CCC(=O)[O-])CCC(=O)[O-])CCC(=O)NC(CCC(=O)[O-])(CCC(=O)[O-])CCC(=O)[O-])cc1NC(=O)NCc1c(CC)c(c(CC)c(c1CC)CNC(=O)Nc1cc(C(=O)NC(CCC(=O)NC(CCC(=O)[O-])(CCC(=O)[O-])CCC(=O)[O-])(CCC(=O)NC(CCC(=O)[O-])(CCC(=O)[O-])CCC(=O)[O-])CCC(=O)NC(CCC(=O)[O-])(CCC(=O)[O-])CCC(=O)[O-])ccc1NC(=O)NC3)CNC(=O)Nc1cc(C(=O)NC(CCC(=O)NC(CCC(=O)[O-])(CCC(=O)[O-])CCC(=O)[O-])(CCC(=O)NC(CCC(=O)[O-])(CCC(=O)[O-])CCC(=O)[O-])CCC(=O)NC(CCC(=O)[O-])(CCC(=O)[O-])CCC(=O)[O-])ccc1NC(=O)NC2.[Na+].[Na+].[Na+].[Na+].[Na+].[Na+].[Na+].[Na+].[Na+].[Na+].[Na+].[Na+].[Na+].[Na+].[Na+].[Na+].[Na+].[Na+].[Na+].[Na+].[Na+].[Na+].[Na+].[Na+].[Na+].[Na+].[Na+] [Receptor 1, Triethylbenzene Receptor]?
Binding implied by 1H NMR spectra (no Ka determinable) [1]: binding with intermediate rate of exchange; Ka (Determined by ITC) [2]: 0 M⁻¹; Ka (Determined by NMR) [3]: 7328 ± 7.4%; TΔS (Determined by ITC) [4]: -2.27 kcal/mol; ΔG (Determined by ITC) [4]: -2.53 kcal/mol; ΔH (Determined by ITC) [4]: -4.78 kcal/mol; Signals for bound α-D-glucose (ROESY) [5]: not observed; Ka (Determined by ITC) [6]: 0 M⁻¹; TΔS (Determined by ITC) [7]: 0.14 kcal/mol; ΔG (Determined by ITC) [7]: -2.94 kcal/mol; ΔH (Determined by ITC) [7]: -2.82 kcal/mol; TΔS (Determined by ITC) [8, 31]: -0.17 kcal/mol; ΔG (Determined by ITC) [8, 31]: -2.03 kcal/mol; ΔH (Determined by ITC) [8, 31]: -2.2 kcal/mol; Ka by ITC, fit calculated with the supplied ITC software ([8]; cellobiose in H2O): 36.6 ± 2.5 M⁻¹; TΔS (Determined by ITC) [9]: 3.23 kcal/mol; ΔG (Determined by ITC) [9]: -5.14 kcal/mol; ΔH (Determined by ITC) [9]: -1.91 kcal/mol; Ka (Determined by ITC) [10]: 0 M⁻¹; Ka (Determined by ITC) [11]: 0 M⁻¹; Ka (Determined by ITC) [12]: 0 M⁻¹; TΔS (Determined by ITC) [13]: -0.574 kcal/mol; ΔG (Determined by ITC) [13]: -5.28 kcal/mol; Ka (Determined by ITC) [14]: 0 M⁻¹; Saturation of receptor on addition of 2 equivalents (0.2 mM) of D-glucose (1H NMR) ([15]; D2O with no added salts): did saturate the receptor; Saturation of receptor on addition of 2 equivalents (0.2 mM) of D-glucose (1H NMR) ([15]; with MgSO4 (0.8 mM) and CaCl2 (1.8 mM), D2O, 10 mM phosphate buffer pH 7.4, 298 K): did not saturate the receptor; TΔS (Determined by ITC) [16, 32]: 3.87 kcal/mol; ΔG (Determined by ITC) [16, 32]: -5.11 kcal/mol; ΔH (Determined by ITC) [16, 32]: -1.24 kcal/mol; TΔS (Determined by ITC) [16, 33]: 3.87 kcal/mol; ΔG (Determined by ITC) [16, 33]: -5.07 kcal/mol; ΔH (Determined by ITC) [16, 33]: -1.2 kcal/mol; TΔS (Determined by ITC) [16, 34]: 4.06 kcal/mol; ΔG (Determined by ITC) [16, 34]: -5.07 kcal/mol; ΔH (Determined by ITC) [16, 34]: -1 kcal/mol; TΔS (Determined by ITC) [16, 35]: 3.66 kcal/mol; ΔG (Determined by ITC) [16, 35]: -4.64 kcal/mol; ΔH (Determined by ITC) [16, 35]: -0.98 kcal/mol; Ka (Determined by ITC) ([16]; D-Glucose pH 6 (PBS), 298 K): 17,300 ± 3.8%; TΔS (Determined by ITC) ([16]; D-Glucose pH 6 (PBS), 298 K): 5.16 kcal/mol; ΔG (Determined by ITC) ([16]; D-Glucose pH 6 (PBS), 298 K): -5.78 kcal/mol; ΔH (Determined by ITC) ([16]; D-Glucose pH 6 (PBS), 298 K): -0.621 kcal/mol; Ka (Determined by ITC) ([16]; D-Glucose pH 7 (PBS), 298 K): 17,800 ± 5.5%; TΔS (Determined by ITC) ([16]; D-Glucose pH 7 (PBS), 298 K): 5.26 kcal/mol; ΔG (Determined by ITC) ([16]; D-Glucose pH 7 (PBS), 298 K): -5.81 kcal/mol; ΔH (Determined by ITC) ([16]; D-Glucose pH 7 (PBS), 298 K): -0.526 kcal/mol; Ka (Determined by ITC) ([16]; D-Glucose pH 8 (PBS), 298 K): 18,300 ± 1.8%; TΔS (Determined by ITC) ([16]; D-Glucose pH 8 (PBS), 298 K): 5.21 kcal/mol; ΔG (Determined by ITC) ([16]; D-Glucose pH 8 (PBS), 298 K): -5.81 kcal/mol; ΔH (Determined by ITC) ([16]; D-Glucose pH 8 (PBS), 298 K): -0.621 kcal/mol; Ka (Determined by ITC) [16, 36]: 18,600 ± 14.3%; TΔS (Determined by ITC) [16, 36]: 3.97 kcal/mol; ΔG (Determined by ITC) [16, 36]: -5.83 kcal/mol; ΔH (Determined by ITC) [16, 36]: -1.86 kcal/mol; Ka by ITC, fit calculated with the supplied ITC software ([16]; D-glucose in 10 mM PBS buffer (pH 6)): 19,800 ± 1290 M^-1; Ka by ITC, fit calculated with the supplied ITC software ([16]; D-glucose in 10 mM PBS buffer (pH 7.4)): 19,100 ± 1310 M^-1; Ka by ITC, fit calculated with the supplied ITC software ([16]; D-glucose in 10 mM PBS buffer (pH 8)): 23,400 ± 1850 M^-1; Ka by ITC, fit calculated with the supplied ITC software ([16]; glucose in H2O): 21,000 ± 2640 M^-1; Ka (Determined by ITC) [17]: 0 M⁻¹; Ka (Determined by ITC) [18]: 0 M⁻¹; Ka (Determined by ITC) [19]: 0 M⁻¹; Ka (Determined by ITC) [20]: 0 M⁻¹; Ka (Determined by ITC) [21]: 0 M⁻¹; TΔS (Determined by ITC) [22]: -1.55 kcal/mol; ΔG (Determined by ITC) [22]: -5.09 kcal/mol; ΔH (Determined by ITC) [22]: -6.64 kcal/mol; TΔS (Determined by ITC) [23, 37]: 5.07 kcal/mol; ΔG (Determined by ITC) [23, 37]: -5.31 kcal/mol; ΔH (Determined by ITC) [23, 37]: -0.765 kcal/mol; Ka by ITC, fit calculated with the supplied ITC software ([23]; methyl-β-D-glucoside in H2O): 9120 ± 542 M⁻¹; TΔS (Determined by ITC) [24]: -2.32 kcal/mol; ΔG (Determined by ITC) [24]: -3.18 kcal/mol; ΔH (Determined by ITC) [24]: -5.5 kcal/mol; Ka (Determined by ITC) [25]: 0 M⁻¹; Ka calculated at titration point (NMR) ([26]; [Guest]total 20 mM): 0.55 M⁻¹; Ka calculated at titration point (NMR) ([26]; [Guest]total 39 mM): 29.0 M⁻¹; Ka calculated at titration point (NMR) ([26]; [Guest]total 58 mM): 31.2 M⁻¹; Ka calculated at titration point (NMR) ([26]; [Guest]total 96 mM): 29.4 M⁻¹; Ka calculated at titration point (NMR) ([26]; [Guest]total 132 mM): 34.9 M⁻¹; Ka calculated at titration point (NMR) ([26]; [Guest]total 167 mM): 81.5 M⁻¹; Ka calculated at titration point (NMR) ([26]; [Guest]total 251 mM): 74.0 M⁻¹; Ka calculated at titration point (NMR) ([26]; [Guest]total 329 mM): 386 M⁻¹; Ka (Determined by ITC) [27]: 0 M⁻¹; TΔS (Determined by ITC) [28]: 1 kcal/mol; ΔG (Determined by ITC) [28]: -3.08 kcal/mol; ΔH (Determined by ITC) [28]: -2.1 kcal/mol; TΔS (Determined by ITC) [29, 38]: 3.2 kcal/mol; ΔG (Determined by ITC) [29, 38]: -3.9 kcal/mol; ΔH (Determined by ITC) [29, 38]: -0.693 kcal/mol; Ka by ITC, fit calculated with the supplied ITC software ([29]; 2-deoxy-D-glucose in H2O): 657 ± 90 M⁻¹; Ka (Determined by ITC) [30]: 0 M⁻¹
